System: CYP1A1 mRNA in primary human hepatocytes
Assay: CYP1A1 mRNA expression in primary human hepatocytes
Assay type: cell-based
[1] = hepatocyte culture LH45, 10 µM, 24 h
[2] = hepatocyte culture LH45, 50 µM, 24 h
[3] = hepatocyte culture LH46, 10 µM, 24 h
[4] = hepatocyte culture LH46, 50 µM, 24 h
[5] = hepatocyte culture LH47, 50 µM, 24 h
[6] = hepatocyte culture LH48 (so in the source), 50 µM, 24 h

CYP1A1 mRNA fold induction over the vehicle-treated cells, LH45 (10 µM) [fold] | CYP1A1 mRNA fold induction over the vehicle-treated cells, LH46 (10 µM) [fold] | CYP1A1 mRNA fold induction over the vehicle-treated cells, LH45 (50 µM) [fold] | CYP1A1 mRNA fold induction over the vehicle-treated cells, LH46 (50 µM) [fold] | CYP1A1 mRNA fold induction over the vehicle-treated cells, LH47 (50 µM) [fold] | CYP1A1 mRNA fold induction over the vehicle-treated cells, LH48 (50 µM) [fold] | SMILES | CYP1A1 mRNA fold induction over the vehicle-treated cells, LH45 [1] [fold] | CYP1A1 mRNA fold induction over the vehicle-treated cells, LH45 [2] [fold] | CYP1A1 mRNA fold induction over the vehicle-treated cells, LH46 [3] [fold] | CYP1A1 mRNA fold induction over the vehicle-treated cells, LH46 [4] [fold] | CYP1A1 mRNA fold induction over the vehicle-treated cells, LH47 [5] [fold] | CYP1A1 mRNA fold induction over the vehicle-treated cells, LH48 [6] [fold]
2.34 ± 0.28 | 0.55 ± 0.03 | 0.69 ± 0.25 | 0.91 ± 0.04 | 0.57 ± 0.09 | 0.07 ± 0.02 | C[C@@H]1O[C@@H](OC[C@H]2O[C@@H](Oc3cc4c(O)cc(O)cc4[o+]c3-c3ccc(O)c(O)c3)[C@H](O)[C@@H](O)[C@@H]2O)[C@H](O)[C@H](O)[C@H]1O.[Cl-] [CYA-2, cyanidin-3-O-rutinoside chloride] | – | – | – | – | – | –
1.31 ± 0.25 | 2.97 ± 0.39 | 0.46 ± 0.03 | 0.28 ± 0.05 | 0.51 ± 0.16 | 0.05 ± 0.02 | OC[C@H]1O[C@@H](O[C@H]2[C@@H](Oc3cc4c(O)cc(O)cc4[o+]c3-c3ccc(O)c(O)c3)O[C@H](CO)[C@@H](O)[C@@H]2O)[C@H](O)[C@@H](O)[C@@H]1O.[Cl-] [CYA-4, cyanidin-3-O-sophoroside chloride] | – | – | – | – | – | –
0.69 ± 0.06 | 0.67 ± 0.07 | 1.16 ± 0.17 | 0.61 ± 0.08 | 0.34 ± 0.11 | 0.07 ± 0.01 | Oc1cc(O)c2cc(O[C@@H]3OC[C@H](O)[C@H](O)[C@H]3O)c(-c3ccc(O)c(O)c3)[o+]c2c1.[Cl-] [CYA-5, cyanidin-3-O-arabinoside chloride] | – | – | – | – | – | –
0.77 ± 0.12 | 1.19 ± 0.14 | 0.73 ± 0.04 | 1.36 ± 0.03 | 0.31 ±0.03 | 0.07 ± 0.00 | C[C@@H]1O[C@@H](Oc2cc3c(O)cc(O)cc3[o+]c2-c2ccc(O)c(O)c2)[C@H](O)[C@H](O)[C@H]1O.[Cl-] [CYA-6, cyanidin-3-O-rhamnoside chloride] | – | – | – | – | – | –
0.65 ± 0.11 | 2.62 ± 0.41 | 0.34 ± 0.06 | 1.85 ± 0.09 | 0.25 ± 0.02 | 0.05 ± 0.02 | OC[C@H]1O[C@@H](Oc2cc3c(O)cc(O)cc3[o+]c2-c2ccc(O)c(O)c2)[C@H](O)[C@@H](O)[C@H]1O.[Cl-] [CYA-7, cyanidin-3-O-galactoside chloride] | – | – | – | – | – | –
0.26 ± 0.01 | 1.48 ± 1.14 | 0.20 ± 0.04 | 1.72 ± 0.72 | 2.44 | 0.02 ± 0.00 | OC[C@H]1O[C@@H](Oc2cc3c(O)cc(O)cc3[o+]c2-c2ccc(O)c(O)c2)[C@H](O[C@@H]2OC[C@@H](O)[C@H](O)[C@H]2O)[C@@H](O)[C@@H]1O.[Cl-] [CYA-8, cyanidin-3-O-sambubioside chloride] | – | – | – | – | – | –
0.32 ± 0.12 | 0.91 ± 0.11 | 0.61 ± 0.05 | 1.77 ± 0.49 | 0.11 ± 0.17 | 0.09 ± 0.05 | OC[C@H]1O[C@@H](Oc2cc3c(O)cc(O)cc3[o+]c2-c2ccc(O)c(O)c2)[C@H](O[C@@H]2OC[C@@H](O)[C@H](O)[C@H]2O)[C@@H](O)[C@H]1O.[Cl-] [CYA-9, cyanidin-3-O-lathyroside chloride] | – | – | – | – | – | –
– | – | – | – | – | – | OC[C@H]1O[C@@H](Oc2cc3c(O)cc(O)cc3[o+]c2-c2cc(O)c(O)c(O)c2)[C@H](O)[C@@H](O)[C@@H]1O.[Cl-] [DEL-1, delphinidin-3-O-glucoside chloride] | 1.80 ± 0.11 | 1.50 ± 0.21 | 1.99 ± 0.12 | 0.80 ± 0.07 | 1.01 ± 0.12 | 0.01 ± 0.00
– | – | – | – | – | – | C[C@@H]1O[C@@H](OC[C@H]2O[C@@H](Oc3cc4c(O)cc(O)cc4[o+]c3-c3cc(O)c(O)c(O)c3)[C@H](O)[C@@H](O)[C@@H]2O)[C@H](O)[C@H](O)[C@H]1O.[Cl-] [DEL-2, delphinidin-3-O-rutinoside chloride] | 1.53 ± 0.36 | 0.53 ± 0.11 | 1.34 ± 0.10 | 0.68 ± 0.01 | 0.23 ± 0.05 | 0.02 ± 0.01
– | – | – | – | – | – | OCC1OC(Oc2cc3c(OC4OC(CO)C(O)C(O)C4O)cc(O)cc3[o+]c2-c2cc(O)c(O)c(O)c2)C(O)C(O)C1O.[Cl-] (stereo not drawn) [DEL-3, delphinidin-3,5-di-O-glucoside chloride] | 0.82 ± 0.02 | 1.70 ± 3.26 | 0.85 ± 0.06 | 1.14 ± 0.21 | 0.39 ± 0.06 | 0.02 ± 0.01
– | – | – | – | – | – | OC[C@H]1O[C@@H](Oc2cc3c(O)cc(O)cc3[o+]c2-c2cc(O)c(O)c(O)c2)[C@H](O[C@@H]2OC[C@@H](O)[C@H](O)[C@H]2O)[C@@H](O)[C@@H]1O.[Cl-] [DEL-4, delphinidin-3-O-sambubioside chloride] | 0.26 ± 0.21 | 0.34 ± 0.09 | 1.11 ± 0.20 | 1.31 ± 0.05 | 0.21 ± 0.26 | 0.07 ± 0.01
– | – | – | – | – | – | C[C@@H]1O[C@@H](Oc2cc3c(O)cc(O)cc3[o+]c2-c2cc(O)c(O)c(O)c2)[C@H](O)[C@H](O)[C@H]1O.[Cl-] [DEL-5, delphinidin-3-O-rhamnoside chloride] | 0.48 ± 0.01 | 0.40 ± 0.09 | 0.98 ± 0.15 | 1.19 ± 0.18 | 0.26 ± 0.01 | 0.01 ± 0.01
– | – | – | – | – | – | COc1cc(-c2[o+]c3cc(O)cc(O[C@@H]4O[C@H](CO)[C@@H](O)[C@H](O)[C@H]4O)c3cc2O[C@@H]2O[C@H](CO)[C@@H](O)[C@H](O)[C@H]2O)cc(OC)c1O.[Cl-] [MAL-2, malvidin-3,5-di-O-glucoside chloride] | 1.14 ± 0.28 | 0.44 ± 0.01 | 1.72 ± 0.39 | 1.64 ± 0.38 | 0.56 ± 0.07 | 0.93 ± 0.09
– | – | – | – | – | – | COc1cc(-c2[o+]c3cc(O)cc(O)c3cc2O[C@@H]2O[C@H](CO)[C@H](O)[C@H](O)[C@H]2O)cc(OC)c1O.[Cl-] [MAL-3, malvidin-3-O-galactoside chloride] | 0.12 ± 0.00 | 0.28 ± 0.04 | 0.87 ± 0.02 | 1.32 ± 0.05 | 0.54 ± 0.02 | 0.33 ± 0.02
0.70 ± 0.17 | 1.49 ± 0.10 | 1.17 ± 0.14 | 2.21 ± 0.66 | 0.59 ± 0.52 | 0.98 ± 0.27 | OC[C@H]1O[C@@H](Oc2cc3c(O[C@@H]4O[C@H](CO)[C@@H](O)[C@H](O)[C@H]4O)cc(O)cc3[o+]c2-c2ccc(O)cc2)[C@H](O)[C@@H](O)[C@@H]1O [PEL-1, pelargonidin-3,5-di-O-glucoside chloride] | – | – | – | – | – | –
– | – | – | – | – | – | COc1cc(-c2[o+]c3cc(O)cc(O)c3cc2O[C@@H]2O[C@H](CO)[C@@H](O)[C@H](O)[C@H]2O)ccc1O.[Cl-] [PEO-1, peonidin-3-O-glucoside chloride] | 0.21 ± 0.03 | 0.80 ± 0.22 | 2.14 ± 0.18 | 2.48 ± 0.57 | 0.51 ± 0.07 | 0.08 ± 0.03

— PMC3759295 (Toxicology letters, 2013)
